Inconclusive results and toxic doses are left out. Rule as the data show it: active = T/C of 150% or more; inactive = T/C below 125%.
Tested on: L1210 leukemia ip in BDF1 mice, survival T/C
Test: NCI In Vivo Anticancer Drug Screen. Data for tumor model L1210 Leukemia (intraperitoneal) in B6D2F1 (BDF1) mice
Conditions: endpoint: mean survival time, higher = longer survival
Procedure, shortened: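 Transplantable tumor model; survival measured in treated vs vehicle control mice. Value = treated/control.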

[1] = dose: 100.0 mg/kg/injection, schedule: Q01DX001 (ip), vehicle: Klucel (hydroxypropylcellulose) (HPC)
[2] = dose: 200.0 mg/kg/injection, schedule: Q01DX001 (ip), vehicle: Klucel (hydroxypropylcellulose) (HPC)
[3] = dose: 100.0 mg/kg/injection, schedule: Q01DX009 (ip), vehicle: saline with Tween-80
[4] = dose: 200.0 mg/kg/injection, schedule: Q01DX009 (ip), vehicle: saline with Tween-80
[5] = dose: 100.0 mg/kg/injection, schedule: Q01DX009 (ip), vehicle: Klucel (hydroxypropylcellulose) (HPC)
[6] = dose: 100.0 mg/kg/injection, schedule: Q04DX003 (ip), vehicle: Klucel (hydroxypropylcellulose) (HPC)
[7] = dose: 200.0 mg/kg/injection, schedule: Q01DX009 (ip), vehicle: Klucel (hydroxypropylcellulose) (HPC)
[8] = dose: 200.0 mg/kg/injection, schedule: Q04DX003 (ip), vehicle: Klucel (hydroxypropylcellulose) (HPC)
[9] = dose: 400.0 mg/kg/injection, schedule: Q04DX003 (ip), vehicle: Klucel (hydroxypropylcellulose) (HPC)
[10] = dose: 100.0 mg/kg/injection, schedule: Q01DX001 (ip), vehicle: saline
[11] = dose: 200.0 mg/kg/injection, schedule: Q01DX001 (ip), vehicle: saline
[12] = dose: 400.0 mg/kg/injection, schedule: Q01DX001 (ip), vehicle: saline
[13] = dose: 5.0 mg/kg/injection, schedule: Q01DX001 (ip), vehicle: saline
[14] = dose: 10.0 mg/kg/injection, schedule: Q01DX001 (ip), vehicle: saline
[15] = dose: 20.0 mg/kg/injection, schedule: Q01DX001 (ip), vehicle: saline
[16] = dose: 75.0 mg/kg/injection, schedule: Q01DX001 (ip), vehicle: saline

Measured: T/C

CC(=O)Nc1cc(Cl)c2[nH]cnc2n1
inactive: dose: 88.0 mg/kg/injection, schedule: Q01DX001 (ip), vehicle: Klucel (hydroxypropylcellulose) (HPC) 100 % of control | [1] 101 % of control | dose: 100.0 mg/kg/injection, schedule: Q04DX003 (ip), vehicle: water 110 % of control | dose: 133.0 mg/kg/injection, schedule: Q01DX001 (ip), vehicle: Klucel (hydroxypropylcellulose) (HPC) 90 % of control | [2] 95 % of control | dose: 200.0 mg/kg/injection, schedule: Q04DX003 (ip), vehicle: water 115 % of control | dose: 300.0 mg/kg/injection, schedule: Q01DX001 (ip), vehicle: Klucel (hydroxypropylcellulose) (HPC) 97 % of control

Cc1ccc(C(=O)/C=C/c2ccc(N(C)C)cc2)cc1
inactive: [3] 90 % of control | [4] 93 % of control | dose: 400.0 mg/kg/injection, schedule: Q01DX009 (ip), vehicle: saline with Tween-80 97 % of control

CP(=S)(c1ccccc1)P(C)(=S)c1ccccc1 (centres undefined)
inactive: [5] 99 % of control | [6] 98 % of control | [7] 103 % of control | [8] 101 % of control | dose: 400.0 mg/kg/injection, schedule: Q01DX009 (ip), vehicle: Klucel (hydroxypropylcellulose) (HPC) 94 % of control | [9] 98 % of control

NC(N)=NCCCC(NC(=O)OCc1ccccc1)C(=O)Nc1ccc2ccccc2c1 (centres undefined)
inactive: [5] 102 % of control | [7] 103 % of control

CCc1c(Cl)c(C)cc(O)c1Cl
inactive: dose: 25.0 mg/kg/injection, schedule: Q01DX009 (ip), vehicle: gum acacia 98 % of control | dose: 25.0 mg/kg/injection, schedule: Q04DX003 (ip), vehicle: gum acacia 100 % of control | dose: 50.0 mg/kg/injection, schedule: Q01DX009 (ip), vehicle: gum acacia 98 % of control | dose: 50.0 mg/kg/injection, schedule: Q04DX003 (ip), vehicle: gum acacia 90 % of control | dose: 100.0 mg/kg/injection, schedule: Q04DX003 (ip), vehicle: gum acacia 96 % of control

CCOC(=O)C1C(O)=C(C(=O)Nc2ccccc2)C(=O)C(C(=O)O)C1C1CC=CCC1 (centres undefined)
inactive: dose: 100.0 mg/kg/injection, schedule: Q01DX001 (ip), vehicle: other 97 % of control | dose: 100.0 mg/kg/injection, schedule: Q04DX003 (ip), vehicle: saline with Tween-80 94 % of control | dose: 200.0 mg/kg/injection, schedule: Q01DX001 (ip), vehicle: other 100 % of control | dose: 200.0 mg/kg/injection, schedule: Q04DX003 (ip), vehicle: saline with Tween-80 103 % of control | dose: 400.0 mg/kg/injection, schedule: Q04DX003 (ip), vehicle: saline with Tween-80 100 % of control

O=C1OC(=O)C2C3C=CC(CC3)C12 (centres undefined)
inactive: [6] 96 % of control | dose: 100.0 mg/kg/injection, schedule: Q04DX003 (ip), vehicle: saline 98 % of control | [8] 100 % of control | dose: 200.0 mg/kg/injection, schedule: Q04DX003 (ip), vehicle: saline 98 % of control

CC(C)c1ccc(/C=N/N=C(N)N)cc1
inactive: dose: 3.8 mg/kg/injection, schedule: Q01DX Z (ip), vehicle: other 100 % of control | dose: 7.5 mg/kg/injection, schedule: Q01DX Z (ip), vehicle: other 102 % of control | dose: 15.0 mg/kg/injection, schedule: Q01DX Z (ip), vehicle: other 94 % of control

COc1c(Cl)c(C)c(Cl)c(C)c1C#CC(=O)O
inactive: [1] 92 % of control | [6] 95 % of control | [2] 97 % of control | [8] 92 % of control | dose: 400.0 mg/kg/injection, schedule: Q01DX001 (ip), vehicle: Klucel (hydroxypropylcellulose) (HPC) 101 % of control

O=C1CN(CN2CCCCC2)C(=O)CN1CN1CCCCC1
inactive: [5] 91 % of control | [6] 109 % of control | [7] 95 % of control | [8] 106 % of control | [9] 90 % of control

CN1C(=O)NC(C)(C)C1=O
inactive: [10] 99 % of control | [11] 97 % of control | [12] 94 % of control

CCCCCCCCCCCCNc1c(OCC)c(=O)c1=O
inactive: [6] 88 % of control | [8] 91 % of control | [9] 93 % of control

c1ccc([P+](CCCCCCCCCC[P+](c2ccccc2)(c2ccccc2)c2ccccc2)(c2ccccc2)c2ccccc2)cc1
inactive: [13] 105 % of control | [14] 102 % of control | [15] 110 % of control

O=C(O)C1(C(=O)O)C=CCCC1
inactive: dose: 100.0 mg/kg/injection, schedule: Q01DX009 (ip), vehicle: saline + alcohol 89 % of control | [6] 100 % of control | dose: 200.0 mg/kg/injection, schedule: Q01DX009 (ip), vehicle: saline + alcohol 102 % of control | [8] 97 % of control | [9] 107 % of control

Cc1ccc(CNC(=O)Cc2ccccc2)cc1C
inactive: dose: 100.0 mg/kg/injection, schedule: Q04DX002 (ip), vehicle: saline with Tween-80 100 % of control | dose: 200.0 mg/kg/injection, schedule: Q04DX002 (ip), vehicle: saline with Tween-80 100 % of control | dose: 400.0 mg/kg/injection, schedule: Q04DX002 (ip), vehicle: saline with Tween-80 110 % of control

Cc1ccc([P+](Cc2ccccc2)(c2ccc(C)cc2)c2ccc(C)cc2)cc1
inactive: [16] 97 % of control | dose: 150.0 mg/kg/injection, schedule: Q01DX001 (ip), vehicle: saline 97 % of control

O=C(Oc1ccccc1Cl)c1ccccc1
inactive: [3] 113 % of control | [4] 116 % of control

CC1OC(O[C@@H]2C=C3CC[C@@H]4[C@H](CC[C@]5(C)[C@@H](c6ccc(=O)oc6)CC[C@]45O)[C@@]3(C)CC2)C(O)C(OC2OC(CO)C(O)C(O)C2O)C1O (some centres undefined)
inactive: dose: 1.0 mg/kg/injection, schedule: Q01DX015 (sc), vehicle: steriod suspending solution 95 % of control | dose: 2.0 mg/kg/injection, schedule: Q01DX015 (sc), vehicle: steriod suspending solution 98 % of control | dose: 4.0 mg/kg/injection, schedule: Q01DX015 (sc), vehicle: steriod suspending solution 96 % of control | [13] 95 % of control | dose: 8.0 mg/kg/injection, schedule: Q01DX015 (sc), vehicle: steriod suspending solution 97 % of control | [14] 106 % of control | dose: 16.0 mg/kg/injection, schedule: Q01DX015 (sc), vehicle: steriod suspending solution 103 % of control | [15] 97 % of control | dose: 32.0 mg/kg/injection, schedule: Q01DX015 (sc), vehicle: steriod suspending solution 100 % of control

O=C(/C=C/c1ccc2c(c1)OCO2)c1ccc(OCc2ccccc2)cc1
inactive: dose: 25.0 mg/kg/injection, schedule: Q04DX002 (ip), vehicle: saline 111 % of control | dose: 50.0 mg/kg/injection, schedule: Q04DX002 (ip), vehicle: saline 108 % of control | dose: 100.0 mg/kg/injection, schedule: Q04DX002 (ip), vehicle: saline 118 % of control | dose: 200.0 mg/kg/injection, schedule: Q04DX002 (ip), vehicle: saline 96 % of control | dose: 400.0 mg/kg/injection, schedule: Q04DX002 (ip), vehicle: saline 92 % of control

CCCCCCCCN/N=C(/C)CCCCCO
inactive: [10] 98 % of control | [11] 103 % of control | [12] 103 % of control

COc1ccc2c3c1OC1C(C)=CCC4C(C2)N(C)CCC314 (centres undefined)
inactive: [16] 101 % of control

O=C(Oc1ccc(Br)cc1)c1cc([N+](=O)[O-])ccc1O
inactive: [10] 98 % of control | [11] 104 % of control | [12] 103 % of control

Cc1ccccc1CC1(Br)CC(C)(C)c2ccccc2C1=O (centres undefined)
inactive: [6] 93 % of control | [8] 106 % of control | [9] 88 % of control

COc1ccc(-n2c(=O)c(N=Nc3ccc(Br)cc3)c(O)n(-c3ccc(C)cc3)c2=S)cc1
inactive: dose: 50.0 mg/kg/injection, schedule: Q01DX001 (ip), vehicle: Klucel (hydroxypropylcellulose) (HPC) 94 % of control | [1] 92 % of control | [2] 88 % of control

O=c1cccccc1O.O=c1cccccc1O.[Cu]
inactive: dose: 1.56 mg/kg/injection, schedule: Q01DX009 (ip), vehicle: Klucel (hydroxypropylcellulose) (HPC) 97 % of control | dose: 3.12 mg/kg/injection, schedule: Q01DX009 (ip), vehicle: Klucel (hydroxypropylcellulose) (HPC) 94 % of control | dose: 6.0 mg/kg/injection, schedule: Q04DX003 (ip), vehicle: saline 94 % of control | dose: 6.25 mg/kg/injection, schedule: Q01DX009 (ip), vehicle: Klucel (hydroxypropylcellulose) (HPC) 94 % of control | dose: 12.0 mg/kg/injection, schedule: Q04DX003 (ip), vehicle: saline 95 % of control | dose: 25.0 mg/kg/injection, schedule: Q04DX003 (ip), vehicle: saline 102 % of control
